In data set [1] the test system is Acne Vulgaris inflammatory lesion. The protocol: An Acne Vulgaris (FIGS. 1a, 1b and 1c) inflammatory lesion on the right cheek of a subject was treated by AIF trihydrate at 0.5% concentration dissolved in water only. The subject applied each 3-4 h the solution as a spray. Pictures were performed in a room with artificial constant light by a Sony Mavica FD95 digital camera at a resolution of 1600×1200 pixels.
(§1) Area of inflammation was measured by image analysis techniques as follows:
Pictures (FIGS. 1a, 1b and 1c) were saved as a BMP file and loaded into Scion Imaging software v. 4.02 (NIH, USA). All three pictures were concomitantly analyzed on the same frame. First, pictures in gray scale were smoothed, manually thresholded, turned into a binary picture and the results transformed to an outline filter. The area of each outlined papule was measured by the software (n=3) and data was further plotted and statistically analyzed by student's t-test in FIG. 2 (Sigmaplot, Jandel, Java).

Data set [2] has as its system Folliculitis inflammatory lesion. The protocol:
A Folliculitis (FIGS. 3a, 3b and 3c) inflammatory lesion on the left posterior thigh […] of a subject was treated by AIF trihydrate at 0.5% concentration dissolved in water only. The subject applied each 3-4 h the solution as a spray. Pictures were performed in a room with artificial constant light by a Sony Mavica FD95 digital camera at a resolution of 1600×1200 pixels.
as §1
Pictures (FIGS. 3a, 3b and 3c) were saved as a BMP file and loaded into Scion Imaging software v. 4.02 (NIH, USA). All three pictures were concomitantly analyzed on the same frame. First, pictures in gray scale were smoothed, manually thresholded, turned into a binary picture and the results transformed to an outline filter. The area of each outlined papule was measured by the software (n=3) and data was further plotted and statistically analyzed by student's t-test in FIG. 4 (Sigmaplot, Jandel, Java).

For data set [3] the following is noted: cited from earlier work.
[4] abbreviates: 0.5% in water only, spray each 3-4 h, right cheek, subject, FIGS. 1a-1c.
Setting [5] is: 0.5% in water only, spray each 3-4 h, left posterior thigh, subject, FIGS. 3a-3c.

Regarding Aluminum fluoride [AIF trihydrate], the “final resolution of the papule, time” value came out at 26 h in data set [1] (setting [4]) and 18 h in data set [2] (setting [5]). Also, the results for the “rapid fading of the papule, time from start of treatment” value in data set [1] (setting [4]) and in data set [2] (setting [5]) were 14 h and 10 h, respectively. In addition, the “heals the inflamed papule within (area of lesion, image analysis)” value in data set [1] (FIG. 2, n=3 area measurements, p<0.01 at 14 h and at 26 h) is recorded as “about 24 h”; in data set [2] (FIG. 4, n=3 area measurements, p<0.01 at 10 h and p<0.001 at 18 h) it was “about 18 h”.

With `CC1=C(/C=C/C(C)=C/C=C/C(C)=C\C(=O)O)C(C)(C)CCC1` [isotretinoin], in data set [3] (oral, Strauss J S et al, J Am Acad Dermatol, 2001), the “incidence of severe side effects” value is listed as 35%. Also, in data set [3] (systemic retinoid), the “side effect: dryness” value is 100%, the “side effect: hair loss” value is recorded as 30%, the “side effect: liver function disorder” value is reported as 5% and the “side effect: musculo-skeletal pains” value was 15%. The “side effect: photosensitivity” value in data set [3] (systemic retinoid) is listed as 90%.

The values above are taken from patent US7452556B2, “Compositions for the treatment of pilosebaceous gland inflammations comprising aluminum fluoride” (Medidermis Ltd., priority 2001, dated 2008).
